Key:
Assay in all cases: relative viability (nuclei count vs DMSO), 5 days (fraction); higher = more cells survive
Tosedostat + Olaparib = compound: CC(C)C[C@@H](C(=O)N[C@H](C(=O)OC1CCCC1)c1ccccc1)[C@H](O)C(=O)NO [Tosedostat] + O=C(c1cc(Cc2n[nH]c(=O)c3ccccc23)ccc1F)N1CCN(C(=O)C2CC2)CC1 [Olaparib] (partner 8 µM)
In short: (§1)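 Relative viability was taken as the ratio of nuclei in treated wells to nuclei in vehicle wells. Lung cancer cell lines in 1536-well plates received compounds by pin tool one day after seeding, either one drug alone or a fixed anchor-drug dose plus five library-drug doses (not always all listed) in √10 steps. Nuclei were counted on 4× images after 5 days of treatment, and values are medians of duplicate plates.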

[1] = compound: CC1=NN=C(O1)C2=NN=C(C=C2)N3CCC(CC3)OC4=C(C=CC(=C4)F)Cl + C[C@@H](Oc1cc(-c2cnn(C3CCNCC3)c2)cnc1N)c1c(Cl)ccc(F)c1Cl [Crizotinib] (partner 1 µM)
In short: as §1

[2] = compound: CC1=NN=C(O1)C2=NN=C(C=C2)N3CCC(CC3)OC4=C(C=CC(=C4)F)Cl + COc1cccc2cc(-c3nc([C@H]4CC[C@H](C(=O)O)CC4)n4ncnc(N)c34)[nH]c12 [OSI-027] (partner 0.5 µM)
In short: as §1

[3] = compound: CC1=NN=C(O1)C2=NN=C(C=C2)N3CCC(CC3)OC4=C(C=CC(=C4)F)Cl + CC(=O)Nc1cccc(-n2c(=O)n(C3CC3)c(=O)c3c(Nc4ccc(I)cc4F)n(C)c(=O)c(C)c32)c1 [Trametinib] (partner 0.02 µM)
In short: as §1

Cell Line | relative viability (Tosedostat + Olaparib; first compound 0.02 µM) | relative viability (Tosedostat + Olaparib; first compound 0.06325 µM) | relative viability (Tosedostat + Olaparib; first compound 0.2 µM) | relative viability (Tosedostat + Olaparib; first compound 0.6325 µM) | relative viability (Tosedostat + Olaparib; first compound 2 µM) | relative viability ([1]; first compound 0.253 µM) | relative viability ([1]; first compound 0.8 µM) | relative viability ([1]; first compound 2.53 µM) | relative viability ([1]; first compound 8 µM) | relative viability ([2]; first compound 0.253 µM) | relative viability ([2]; first compound 0.8 µM) | relative viability ([2]; first compound 2.53 µM) | relative viability ([2]; first compound 8 µM) | relative viability ([3]; first compound 0.253 µM) | relative viability ([3]; first compound 0.8 µM) | relative viability ([3]; first compound 2.53 µM) | relative viability ([3]; first compound 8 µM)
NCI-H1651 | 0.201 | 0.203 | 0.168 | 0.156 | 0.141 | 0.753 | 0.659 | 0.656 | 0.669 | 0.73 | 0.597 | 0.717 | 0.697 | 0.651 | 0.621 | 0.609 | 0.576
NCI-H661 | 0.814 | 0.723 | 0.75 | 0.72 | 0.724 | 0.609 | 0.661 | 0.711 | 0.747 | 0.633 | 0.588 | 0.528 | 0.484 | 0.489 | 0.472 | 0.429 | 0.379
NCI-H1755 | 0.924 | 0.851 | 0.827 | 0.857 | 0.776 | 0.578 | 0.576 | 0.619 | 0.512 | 0.609 | 0.625 | 0.669 | 0.597 | 0.619 | 0.659 | 0.645 | 0.643
NCI-H1734 | 0.651 | 0.505 | 0.577 | 0.431 | 0.536 | 0.652 | 0.688 | 0.62 | 0.626 | 0.647 | 0.446 | 0.599 | 0.524 | 0.642 | 0.652 | 0.663 | 0.597
NCI-H1993 | 1.13 | 1.04 | 0.943 | 0.736 | 0.769 | 0.779 | 0.806 | 0.794 | 0.993 | 0.457 | 0.552 | 0.523 | 0.581 | 0.453 | 0.523 | 0.655 | 0.593
RERF-LC-KJ | 0.903 | 0.999 | 0.829 | 0.757 | 0.747 | 0.496 | 0.498 | 0.495 | 0.458 | 0.524 | 0.531 | 0.622 | 0.479 | 0.665 | 0.593 | 0.595 | 0.612
HARA | 0.762 | 0.853 | 0.779 | 0.519 | 0.662 | 0.747 | 0.327 | 0.271 | 0.294 | 0.404 | 0.206 | 0.359 | 0.348 | 0.438 | 0.369 | 0.448 | 0.322
NCI-H838 | 0.839 | 0.716 | 0.735 | 0.739 | 0.729 | 0.643 | 0.679 | 0.731 | 0.683 | 0.37 | 0.394 | 0.396 | 0.331 | 0.406 | 0.429 | 0.478 | 0.428
NCI-H1666 | 0.726 | 0.732 | 0.72 | 0.638 | 0.777 | 0.612 | 0.621 | 0.636 | 0.629 | 0.539 | 0.697 | 0.801 | 0.797 | 0.764 | 0.761 | 0.834 | 0.834
